Experimental data as given in PubChem BioAssay (NCI).
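GI50 = concentration required for 50% inhibition of growth. At the TGI there is no net growth.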

Tests used:
Assay in all cases: growth of human tumour cells (NCI), 384-well format
HOP-92 NSCLC = system: HOP-92 NSCLC
LOX IMVI melanoma = system: LOX IMVI melanoma
NCI-H322M lung = system: NCI-H322M lung
UACC-62 melanoma = system: UACC-62 melanoma
HS 578T breast = system: HS 578T breast
SF-539 CNS = system: SF-539 CNS
MALME-3M melanoma = system: MALME-3M melanoma
NCI-H23 lung = system: NCI-H23 lung
PC-3 prostate = system: PC-3 prostate
HT29 colon = system: HT29 colon
HCT-15 colon = system: HCT-15 colon
EKVX NSCLC = system: EKVX NSCLC
HL-60(TB) leukemia = system: HL-60(TB) leukemia
SNB-75 CNS = system: SNB-75 CNS
M14 melanoma = system: M14 melanoma
T-47D breast = system: T-47D breast
IGROV1 ovarian = system: IGROV1 ovarian
OVCAR-8 ovarian = system: OVCAR-8 ovarian
DU-145 prostate = system: DU-145 prostate
COLO 205 colon = system: COLO 205 colon
U251 glioblastoma = system: U251 glioblastoma
KM12 colon = system: KM12 colon
RXF 393 renal = system: RXF 393 renal
786-0 renal = system: 786-0 renal
HCT-116 colon = system: HCT-116 colon
MDA-MB-468 breast = system: MDA-MB-468 breast
UO-31 renal = system: UO-31 renal
ACHN renal = system: ACHN renal
SK-OV-3 ovarian = system: SK-OV-3 ovarian
NCI/ADR-RES ovarian = system: NCI/ADR-RES ovarian
HOP-62 NSCLC = system: HOP-62 NSCLC
UACC-257 melanoma = system: UACC-257 melanoma
HCC-2998 colon = system: HCC-2998 colon
MDA-MB-435 melanoma = system: MDA-MB-435 melanoma
SF-268 CNS = system: SF-268 CNS
SF-295 CNS = system: SF-295 CNS
NCI-H460 NSCLC = system: NCI-H460 NSCLC
RPMI-8226 leukemia = system: RPMI-8226 leukemia
CAKI-1 renal = system: CAKI-1 renal
SK-MEL-5 melanoma = system: SK-MEL-5 melanoma
A549 NSCLC = system: A549 NSCLC
CCRF-CEM leukemia = system: CCRF-CEM leukemia
BT-549 breast = system: BT-549 breast
OVCAR-5 ovarian = system: OVCAR-5 ovarian
OVCAR-3 ovarian = system: OVCAR-3 ovarian
NCI-H226 lung = system: NCI-H226 lung
MOLT-4 leukemia = system: MOLT-4 leukemia
OVCAR-4 ovarian = system: OVCAR-4 ovarian
K-562 leukemia = system: K-562 leukemia
SW-620 colon = system: SW-620 colon
MCF7 breast = system: MCF7 breast
TK-10 renal = system: TK-10 renal

COc1ncc(-c2ccc3nccc(-c4ccnnc4)c3c2)cc1NS(=O)(=O)c1ccc(F)cc1F showed a GI50 (HOP-92 NSCLC) of under 10 nM, a TGI (HOP-92 NSCLC) of 46 nM and a GI50 (LOX IMVI melanoma) of 12.3 nM. The TGI (LOX IMVI melanoma) was 135 nM, the GI50 (NCI-H322M lung) was 11.1 nM and the TGI (NCI-H322M lung) was 723 nM. For the same molecule, the GI50 (UACC-62 melanoma) was under 10 nM, the TGI (UACC-62 melanoma) was 33.3 nM and the GI50 (HS 578T breast) was under 10 nM. For the same molecule, the TGI (HS 578T breast) was 17.3 nM, the GI50 (SF-539 CNS) was 13.8 nM and the TGI (SF-539 CNS) was 103 nM. For the same molecule, the GI50 (MALME-3M melanoma) was under 10 nM, the TGI (MALME-3M melanoma) was 26.4 nM and the GI50 (NCI-H23 lung) was under 10 nM. It also gave a TGI (NCI-H23 lung) of 2520 nM, a GI50 (PC-3 prostate) of under 10 nM and a TGI (PC-3 prostate) of 97.6 nM. The GI50 (HT29 colon) was under 10 nM, the TGI (HT29 colon) was 1410 nM and the GI50 (HCT-15 colon) was under 10 nM. The TGI (HCT-15 colon) was 2960 nM, the GI50 (EKVX NSCLC) was under 10 nM and the TGI (EKVX NSCLC) was 98 nM. For the same molecule, the GI50 (HL-60(TB) leukemia) was under 10 nM, the TGI (HL-60(TB) leukemia) was 10.7 nM and the GI50 (SNB-75 CNS) was under 10 nM. For the same molecule, the TGI (SNB-75 CNS) was 14.2 nM, the GI50 (M14 melanoma) was under 10 nM and the TGI (M14 melanoma) was 1070 nM. It also gave a GI50 (T-47D breast) of under 10 nM, a TGI (T-47D breast) of under 10 nM and a GI50 (IGROV1 ovarian) of under 10 nM. It also gave a TGI (IGROV1 ovarian) of under 10 nM, a GI50 (OVCAR-8 ovarian) of 23.4 nM and a TGI (OVCAR-8 ovarian) of 1850 nM. The GI50 (DU-145 prostate) was 21.4 nM, the TGI (DU-145 prostate) was over 100000 nM and the GI50 (COLO 205 colon) was under 10 nM. The TGI (COLO 205 colon) was 125 nM, the GI50 (U251 glioblastoma) was 21.1 nM and the TGI (U251 glioblastoma) was 1270 nM. It also gave a GI50 (KM12 colon) of 21.9 nM, a TGI (KM12 colon) of 2190 nM and a GI50 (RXF 393 renal) of under 10 nM. For the same molecule, the TGI (RXF 393 renal) was 25.3 nM, the GI50 ([…]-0 renal) was 17.1 nM and the TGI (786-0 renal) was 276 nM. The GI50 (HCT-116 colon) was 13.3 nM, the TGI (HCT-116 colon) was 1170 nM and the GI50 (MDA-MB-468 breast) was under 10 nM. It also gave a TGI (MDA-MB-468 breast) of 11.7 nM, a GI50 (UO-31 renal) of under 10 nM and a TGI (UO-31 renal) of 137 nM. For the same molecule, the GI50 (ACHN renal) was under 10 nM, the TGI (ACHN renal) was over 100000 nM and the GI50 (SK-OV-3 ovarian) was under 10 nM. For the same molecule, the TGI (SK-OV-3 ovarian) was 51.3 nM, the GI50 (NCI/ADR-RES ovarian) was 43 nM and the TGI (NCI/ADR-RES ovarian) was 1650 nM. It also gave a GI50 (HOP-62 NSCLC) of 25.7 nM, a TGI (HOP-62 NSCLC) of 635 nM and a GI50 (UACC-257 melanoma) of 13.3 nM. It also gave a TGI (UACC-257 melanoma) of 87.3 nM, a GI50 (HCC-2998 colon) of 14.3 nM and a TGI (HCC-2998 colon) of 912 nM. It also gave a GI50 (MDA-MB-435 melanoma) of 18.2 nM, a TGI (MDA-MB-435 melanoma) of 1130 nM and a GI50 (SF-268 CNS) of under 10 nM. It also gave a TGI (SF-268 CNS) of under 10 nM, a GI50 (SF-295 CNS) of under 10 nM and a TGI (SF-295 CNS) of 54.1 nM. The GI50 (NCI-H460 NSCLC) was under 10 nM, the TGI (NCI-H460 NSCLC) was 51.5 nM and the GI50 (RPMI-8226 leukemia) was 15.5 nM. The TGI (RPMI-8226 leukemia) was 54.4 nM, the GI50 (CAKI-1 renal) was under 10 nM and the TGI (CAKI-1 renal) was 106 nM. The GI50 (SK-MEL-5 melanoma) was under 10 nM, the TGI (SK-MEL-5 melanoma) was 43.6 nM and the GI50 (A549 NSCLC) was under 10 nM. The TGI (A549 NSCLC) was 101 nM, the GI50 (CCRF-CEM leukemia) was under 10 nM and the TGI (CCRF-CEM leukemia) was under 10 nM. For the same molecule, the GI50 (BT-549 breast) was under 10 nM, the TGI (BT-549 breast) was 48.3 nM and the GI50 (OVCAR-5 ovarian) was under 10 nM. It also gave a TGI (OVCAR-5 ovarian) of 1130 nM, a GI50 (OVCAR-3 ovarian) of under 10 nM and a TGI (OVCAR-3 ovarian) of 110 nM. For the same molecule, the GI50 (NCI-H226 lung) was 18.5 nM, the TGI (NCI-H226 lung) was 2400 nM and the GI50 (MOLT-4 leukemia) was under 10 nM. The TGI (MOLT-4 leukemia) was under 10 nM, the GI50 (OVCAR-4 ovarian) was 25.2 nM and the TGI (OVCAR-4 ovarian) was 480 nM. The GI50 (K-562 leukemia) was 44.2 nM, the TGI (K-562 leukemia) was 12500 nM and the GI50 (SW-620 colon) was 35.4 nM. The TGI (SW-620 colon) was 1500 nM, the GI50 (MCF7 breast) was under 10 nM and the TGI (MCF7 breast) was 73400 nM. It also gave a GI50 (TK-10 renal) of under 10 nM and a TGI (TK-10 renal) of 251 nM.
